The supplement of paper PMC10307832

Assays:
Assay in all cases: relative viability (nuclei count vs DMSO), 5 days (fraction); higher = more cells survive
[1] = compound: C#Cc1cccc(Nc2ncnc3cc(OC)c(OCCCCCCC(=O)NO)cc23)c1 [CUDC-101] + NC(=O)Nc1cc(-c2cccc(F)c2)sc1C(=O)N[C@H]1CCCNC1 [AZD7762] (partner 0.2 µM)
In short: (§1)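 A single step with final 0.05% Triton X-100, 1% formaldehyde and 1 ug/ml Hoechst fixed the cells and stained nuclei 5 days after treatment. Lung cancer cell lines in 1536-well plates had been treated by pin tool the day after seeding with one drug alone or a fixed anchor-drug dose plus five library-drug doses (not always all listed) in √10 steps, and nuclei were counted on 4× images. Relative viability is the ratio of nuclei in treated wells to nuclei in vehicle wells, taken as the median of duplicate plates.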

[2] = compound: C1=CC=C2C(=C1)N=C(S2)C(C#N)C3=NC(=NC=C3)NCCC4=CN=CC=C4 + C[C@]1(O)C[C@@H](c2nc(-c3ccc4ccc(-c5ccccc5)nc4c3)c3c(N)nccn32)C1 [Linsitinib] (partner 1 µM)
In short: as §1

[3] = compound: COc1cc2/c(=N/c3ccc(Br)cc3F)nc[nH]c2cc1OCC1CCN(C)CC1 [Vandetanib] + Cc1nc(NC(=O)N2CCC[C@H]2C(N)=O)sc1-c1ccnc(C(C)(C)C(F)(F)F)c1 [Alpelisib] (partner 2 µM)
In short: as §1

[4] = compound: COc1cc2/c(=N/c3ccc(Br)cc3F)nc[nH]c2cc1OCC1CCN(C)CC1 [Vandetanib] + N=C(N)NC(=N)NCCc1ccccc1 [Phenformin] (partner 250 µM)
In short: as §1

Cell Line	relative viability ([1]; first compound 0.01 µM)	relative viability ([1]; first compound 0.03162 µM)	relative viability ([1]; first compound 0.1 µM)	relative viability ([1]; first compound 0.3162 µM)	relative viability ([1]; first compound 1 µM)	relative viability ([2]; first compound 0.005 µM)	relative viability ([2]; first compound 0.01581 µM)	relative viability ([2]; first compound 0.05 µM)	relative viability ([2]; first compound 0.1581 µM)	relative viability ([2]; first compound 0.5 µM)	relative viability ([3]; first compound 0.02 µM)	relative viability ([3]; first compound 0.06325 µM)	relative viability ([3]; first compound 0.2 µM)	relative viability ([3]; first compound 0.6325 µM)	relative viability ([3]; first compound 2 µM)	relative viability ([4]; first compound 0.02 µM)	relative viability ([4]; first compound 0.06325 µM)	relative viability ([4]; first compound 0.2 µM)	relative viability ([4]; first compound 0.6325 µM)	relative viability ([4]; first compound 2 µM)
NCI-H1993	0.811	0.87	0.855	0.704	0.428	0.861	0.784	0.749	0.749	0.681	0.668	0.706	0.648	0.582	0.703	0.523	0.506	0.554	0.605	0.53
NCI-H3122	0.998	0.951	1	1.04	1.06	1.02	0.992	1.04	1.07	0.999	0.781	0.756	0.778	0.765	0.822	0.348	0.374	0.327	0.303	0.333
NCI-H1651	0.502	0.442	0.534	0.398	0.349	0.695	0.846	1	1.18	0.921	0.912	0.905	0.953	1.02	0.837	0.304	0.299	0.325	0.353	0.311
NCI-H1355	0.657	0.645	0.846	0.747	0.598	0.764	0.849	0.847	1.05	0.714	0.811	0.772	0.466	0.958	0.822	0.436	0.461	0.431	0.448	0.406
NCI-H596	1.09	1.09	1.12	1.07	1.04	0.921	1.12	1.05	1.15	0.951	0.515	0.518	0.618	0.593	0.453	0.917	0.623	0.698	0.747	0.698
NCI-H23	0.293	0.161	0.282	0.276	0.226	–	0.685	0.583	0.85	0.533	0.609	0.613	0.566	0.772	0.532	0.763	0.733	0.8	0.777	0.742
HCC-366	0.254	0.174	0.285	0.289	0.211	0.56	0.709	0.693	0.834	0.558	0.44	0.289	0.328	0.528	0.226	0.596	0.603	0.62	0.586	0.505
NCI-H2126	1.01	0.98	0.939	0.945	0.943	0.748	0.739	0.705	0.705	0.665	0.787	0.74	0.757	0.737	0.674	0.541	0.5	0.522	0.495	0.49
